Series [1] has as its system lung injury. Kind of series: histological evaluation of lung biopsies (four graded scale 0-3). The class given is in vivo, pig. From the text: After euthanasia, the chest was opened and two approximately 2 × 1 × 1 cm pieces of lung tissue was cut from the left lung 3 cm from the hilus. One piece was immediately put in formaldehyde solution for later routine preparation for histological evaluation in hematoxylin and eosin staining. A pathologist, blinded for treatment group, evaluated the severity of lung injury in specimens on a four graded scale: 0 = no lung injury, 1 = mild lung injury, 2 = moderate lung injury and 3 = severe lung injury.

Series [2] can be described thus: pharmacokinetic pilot, continuous infusion in one animal. The class given is in vivo, pig. Here is the method:
One animal served as a pharmacokinetic pilot, with arterial and venous catheters placed in a cut-down in the neck. The remaining 21 animals were used for the randomized study (Figure 1). After intubation and start of mechanical ventilation, a second auricular vein cannula was placed and infusion of either AEPU or placebo according to randomization was started. After 2 h of infusion of AEPU or placebo, an infusion of LPS was started. A bolus of 0.1 mg/kg was administered during 30 min after which the infusion rate was adjusted to 0.01 mg/kg/h. During the time between start of AEPU or placebo and LPS infusion, neck dissection was performed, exposing the v jugularis externa and carotid artery. A pulmonary artery introducer and an arterial cannula were placed in vein and artery respectively, and a pulmonary artery catheter introduced through the introducer and the tip placed in the correct position in the pulmonary artery placement guided by continuous invasive pressure monitoring or, when difficult, assisted by fluoroscopy. All surgical procedures were performed under sterile conditions.
AEPU was synthesized according to Kim et al. ([Kim et al., 2007]), delivered in 60 mg vials and dissolved in 30 mL pure ethanol as a co-solvent, of which either 20 mL was added to 980 mL of sodium chloride 9 mg/mL or 8 mL–392 mL sodium chloride, creating a solution of 0.04 mg/mL AEPU and 2% ethanol. The placebo infusion was prepared by adding either 20 mL of pure ethanol to 980 mL of sodium chloride 9 mg/mL or 8 mL of pure ethanol to 392 mL sodium chloride, creating a 2% ethanol solution. Each animal received an infusion of either 0.1 mg/kg/h AEPU or the corresponding volume of placebo solution.
Infusion of AEPU at 0.1 mg/kg/h produced a progressive rise in blood concentration reaching steady state of approximately 200 nM at 120 min, maintained with only minor variations until the termination of infusion at 255 min. The elimination of AEPU after termination of infusion was rapid, showing complete elimination within 15 min (Figure 2).

Assay in series [3]: as above
The format is in vivo. Particulars: pig, whole blood, intravenous, 0.1 mg/kg/h, time 240 minutes (STOP INFUSION), read-out: Conc in blood 950.

Series [4] is described as follows: liver microsomal assay (metabolic stability). The format is in vitro ADME, pig. The method, then:
To further characterize the inhibitors with regard to suitability for administration in pigs, a microsomal assay was used to determine metabolic stability ([Ackley et al., 2004]) for a subset of eight inhibitors chosen for their potency and availability. Microsomal preparations from pig liver were purchased from XenoTech (Kansas City, KS, US). Microsomes, buffer and NADPH generating system were combined, and then the inhibitor was added. The reaction was stopped after 35 min with ice cold acetonitrile containing internal standard (12-[[(cyclohexylamino)carbonyl]amino]-dodecanoic acid). The amount left of parent inhibitor was determined with LC-MS/MS.

Experimental findings from PMC12457078, “Inhibition of soluble epoxide hydrolase in endotoxin induced pig lung injury” (Frontiers in Pharmacology, 2025) are described below.

Where “and” joins values, the source holds several entries; their conditions need not be identical. Identical values can stand only once. Entries after “also recorded” stand apart in the source; their conditions may differ.

Take `CCOCCOCCOCCCCCNC(=O)NC12CC3CC(CC(C3)C1)C2` [Compound 950]: in series [1] (histology score, per case, listed as sEH-i 950), the lungskada is 3 and 2. Moreover, the Lung injury entry in series [1] (histology, grade in words, per case, listed as sEH-i 950) is “Severe; also recorded: Moderate”. In addition, the Histological injury score in series [1] (scale 0-3, AEPU group) is 2.7 (2–3). Also, the “time to complete elimination after termination of infusion” value in series [2] (infusion 0.1 mg/kg/h) is at most 15 min. Besides, in series [2] (pig, whole blood, intravenous, 0.1 mg/kg/h, time 0 minutes, read-out: Conc in blood 950), the concentration at 0 min was 11 ng/mL. Also, the concentration at 5 min in series [2] (pig, whole blood, intravenous, 0.1 mg/kg/h, time 5 minutes, read-out: Conc in blood 950) was 45 ng/mL. The concentration at 35 min in series [2] (pig, whole blood, intravenous, 0.1 mg/kg/h, time 35 minutes, read-out: Conc in blood 950) was 116 ng/mL. Further, the concentration at 65 min in series [2] (pig, whole blood, intravenous, 0.1 mg/kg/h, time 65 minutes, read-out: Conc in blood 950) was determined as 174 ng/mL. Besides, the concentration at 121 min in series [2] (pig, whole blood, intravenous, 0.1 mg/kg/h, time 121 minutes, read-out: Conc in blood 950) is 199 ng/mL. Further, the concentration at 185 min in series [2] (pig, whole blood, intravenous, 0.1 mg/kg/h, time 185 minutes, read-out: Conc in blood 950) turned out to be 202 ng/mL. Further, the concentration at 255 min in series [2] (pig, whole blood, intravenous, 0.1 mg/kg/h, time 255 minutes, read-out: Conc in blood 950) is 224 ng/mL. In series [2] (pig, whole blood, intravenous, 0.1 mg/kg/h, time 270 minutes, read-out: Conc in blood 950), the concentration at 270 min stood at 0.189 ng/mL. Moreover, the concentration at 285 min in series [2] (pig, whole blood, intravenous, 0.1 mg/kg/h, time 285 minutes, read-out: Conc in blood 950) stood at 0.189 ng/mL. The concentration at 300 min in series [2] (pig, whole blood, intravenous, 0.1 mg/kg/h, time 300 minutes, read-out: Conc in blood 950) worked out at 0.189 ng/mL. For the same molecule, the concentration at 330 min in series [2] (pig, whole blood, intravenous, 0.1 mg/kg/h, time 330 minutes, read-out: Conc in blood 950) was determined as 0.189 ng/mL. Besides, the concentration at 120 min in series [2] (pig, whole blood, intravenous, infusion 0.1 mg/kg/h, reached at 120 min, read-out: steady state blood concentration) was about 200 nM. Further, the concentration at 240 min in series [3] came to 199 ng/mL. The “metabolic stability” value in series [4] is “low”.
